According to patent US20050220779A1, “Integrin linked kinase modulation of macrophage activation” (priority 2001, published 2005):

Legend:
RAW 264.7 cells [1] = assay: LPS-IFN-γ-induced macrophage NO production (Griess nitrite assay), RAW 264.7 cells; assay type: cell-based, murine; settings: 24 h; for NO release (%): 50 μM, relative to DMSO treated cells; for inhibition at 50 µM: Mus musculus, RAW264.7, 50 μM
Method: RAW 264.7 cells. RAW 264.7 cells, a murine macrophage cell line, were obtained from American Type Culture Collection (ATCC, Manassas, Va.) and cultured in DMEM supplemented with 10% FCS. Each treatment was performed in triplicate wells. RAW 264.7 cells (Balb/c background) produce a significant amount of nitric oxide upon treatment with IFN-γ alone, but require LPS for full activation. This property makes their behavior more like that of normal macrophages obtained from commonly used strains of mice.
(§1) Treatment of primary macrophages and RAW 264.7 cells. […] Following 3 h incubation, at 37 C, 5% CO2 (macrophages were allowed to attach) cells were stimulated with LPS (0.5 μg/ml) and IFN-γ (100 U/ml) in the absence or presence of various concentrations of ILK inhibitors (all treatments were replicated six times). Cells were incubated for an additional 24 h, and cell free culture supernatants from each well were collected for NO and cytokine determination. The remaining cells were stained with crystal violet to determine effect of the inhibitors on cell survival.
NO production. Following stimulation, the production of NO was determined by assaying culture supernatants for NO2^−, a stable reaction product of NO with molecular oxygen. Briefly, 100 μl of culture supernatant was reacted with an equal volume of Griess reagent at room temperature for 10 min. The absorbance at 550 nm was determined. All measurements were performed six times. The concentration of NO2^−was calculated by comparison with a standard curve prepared using NaNO2.
Effects of ILK inhibitors on LPS-IFN-γ-induced NO release. […] […] To compare the effect of the compounds across three different cell types, the NO release for each cell type was expressed relative to DMSO treated cells.

RAW 264.7 cells [2] = assay: Cell survival by crystal violet staining, RAW 264.7 cells; assay type: cell-based; settings: 50 μM, 24 h, DMSO-treated = 100%
Method: Treatment of primary macrophages and RAW 264.7 cells. Primary macrophages (1.5×10^5 cells/well) and RAW 264.7 (4×10^4 cells/well) cells were grown in 96-well plates (nitrite assay), or 6-well plates (2×10^6 cells/well) for measurement of iNOS and COX-2 expression. Following 3 h incubation, at 37 C, 5% CO2 (macrophages were allowed to attach) cells were stimulated with LPS (0.5 μg/ml) and IFN-γ (100 U/ml) in the absence or presence of various concentrations of ILK inhibitors (all treatments were replicated six times). Cells were incubated for an additional 24 h, and cell free culture supernatants from each well were collected for NO and cytokine determination. The remaining cells were stained with crystal violet to determine effect of the inhibitors on cell survival.
Effect of ILK Inhibitors on suppression of NO production and cell survival. Twenty-four hours following treatment with the ILK inhibitors, aliquots from the cell-free supernatants were assayed for NO and IL-6 release. Surviving cells were stained and fixed (crystal violet 0.05% in 20% ethanol), to determine if the decrease in NO production was related to a decrease in cell number due to toxicity of the compounds. […] Only those compounds that induced strong inhibition of NO release, and caused no significant cell death were selected for further evaluation.

COX-2 = COX-2 protein expression in LPS-IFN-γ stimulated macrophages (western blot); assay type: cell-based, murine; settings: LPS-IFN-γ stimulated macrophages, western blot
Method: (§2) Western blot analysis. After incubation with the indicated stimuli in the presence of ILK inhibitors, cells (duplicate samples, 2×10^6cell/6-wells plate) were washed in PBS and lysed on ice in 60 μl of lysis buffer. The protein content of each sample was determined using the Bradford protein assay kit (Bio-Rad, Richmond, Calif.). Absorbance was measured at 750 nm with a Beckman DU530 spectrophotometer (Palo Alto, Calif.). Proteins were mixed with 45×SDS sample buffer. Following separation of proteins by SDS-PAGE, using 8% bis-acrylamide in the separation gel, the proteins were transferred from the gels onto PVDF membranes using a MiniProtean III Cell (Bio-Rad), at 100 V for 1.5 h. Equal amounts of protein (5 μg) were loaded onto SDS-PAGE gels and examined by Western blot analysis with anti-Actin, anti-iNOS, anti-COX-2 murine monoclonal antibodies according to the manufacturers specifications (Transduction Laboratories). […] The Multi-Analyst/PC system from Biorad is being used to quantitate the bands of the expressed protein on the film. […] White light is chosen as the selected light source, thus the signal strength is measured in OD (optic density) units. […]
(§3) Effects of ILK inhibitors on the LPS-IFN-γ-induced iNOS and COX-2 expression NO production requires that iNOS be enzymatically activity, therefore experiments were performed to examine whether the inhibitory effect of ILK inhibitors was mediated by […] iNOS protein synthesis or effects on the activity of existing enzyme. Stimulated cells were treated with ILK inhibitors (25 μM), and lysed 16 h later and a western blot analysis was performed to quantitate iNOS protein expression. […]
Nitric oxide and Prostaglandin E2 are two pleiotropic mediators produced at inflammatory sites by the inducible enzymes iNOS and cyclooxygenase-2 (COX-2), respectively. […] Finally, we evaluated the in-vitro effects of compounds on production of MCP-1 chemokine by TNF-α stimulated HUVEC cells. […]

[3] = tested on: C57BL/6 cells (primary peritoneal macrophages); assay: Cell survival by crystal violet staining, C57BL/6 cells; assay type: cell-based; settings: 50 μM, 24 h, DMSO-treated = 100%
Method: as §1
(§4) Effect of ILK Inhibitors on suppression of NO production and cell survival. Twenty-four hours following treatment with the ILK inhibitors, aliquots from the cell-free supernatants were assayed for NO and IL-6 release. Surviving cells were stained and fixed (crystal violet 0.05% in 20% ethanol), to determine if the decrease in NO production was related to a decrease in cell number due to toxicity of the compounds.

[4] = tested on: BALB/c cells (primary peritoneal macrophages); assay: Cell survival by crystal violet staining, BALB/c cells; assay type: cell-based; settings: 24 h, 50 μM
Method: as §1, §4

iNOS = iNOS protein expression in LPS-IFN-γ stimulated macrophages (western blot); assay type: cell-based, murine; settings: LPS-IFN-γ stimulated macrophages, western blot
Method: as §2, with “Laboratories). Primary Abs, in 5% blocking buffer (5% NFM/TTBS), were incubated with blots 2 h or overnight at 4° C., followed by incubation with peroxidase-conjugated secondary antibody. Chemiluminescence substrates were used to reveal positive bands. The bands were exposed on x-ray films.” for “Laboratories).”
as §3

Structure (SMILES)	NO release (%) (RAW 264.7 cells [1])	inhibition at 50 µM (RAW 264.7 cells [1])	Survival (%) (RAW 264.7 cells [2])	COX-2 protein expression (in words) (COX-2)	Survival (%) [3]	Survival (%) ([4]; BALB/c, mouse)	iNOS protein expression (in words) (iNOS)	Survival (%) ([4]; BALB/c cells, DMSO-treated = 100%)
N=C(N)N/N=C/c1ccc(Cl)cc1Cl [KP-16735]	20.4%	73%	51%	significant decrease of COX-2 protein expression	49%	73%	significantly inhibited the expression of iNOS protein	–
Oc1ccc2c(c1)CC1NCCc3cc(O)c(O)c-2c31 (centres unmarked) [KP-21849, 5,6,6a,7-Tetrahydro-4H-dibenzo[de,g]quinoline-1,2,9-triol]	−0.1%	100%	51%	significant decrease of COX-2 protein expression	44%	–	significantly inhibited the expression of iNOS protein	41%
